What all share (type): functional, cell-based
One experiment has as its system A2780. The experiment is described as follows: Cytotoxicity against human A2780 cells assessed as cell viability after 72 hrs by MTT assay. The note with it: A2780, 72 h. (In general: Tetrazolium dyes change colour on reduction, which living cells bring about.)
Another experiment relates to KETR3. Description: Cytotoxicity against human Ketr3 cells assessed as cell viability after 72 hrs by MTT assay. The conditions noted are these: KETR3, 72 h.
Experiment [1] can be described thus: Cytotoxicity against human BGC803 cells assessed as cell viability after 72 hrs by MTT assay. The note with it: BGC803, 72 h.
A further experiment has as its system A549. Description: Cytotoxicity against human A549 cells assessed as cell viability after 72 hrs by MTT assay. The note with it: A549, 72 h.
A short description of experiment [2]: Cytotoxicity against human HELF cells assessed as cell viability after 72 hrs by MTT assay.
The next experiment relates to MCF7. The experiment is described as follows: Cytotoxicity against human MCF7 cells assessed as cell viability after 72 hrs by MTT assay. The conditions noted are these: MCF7, 72 h.
The next experiment concerns HeLa. The experiment is described as follows: Cytotoxicity against human HeLa cells assessed as cell viability after 72 hrs by MTT assay.
In another experiment the test system is HCT-8. The experiment is described as follows: Cytotoxicity against human HCT8 cells assessed as cell viability after 72 hrs by MTT assay. The note with it: HCT-8, 72 h.
The subject of the next experiment is KB. The experiment is described as follows: Cytotoxicity against human KB cells assessed as cell viability after 72 hrs by MTT assay.
For the next experiment, the system named is Bel-7402. The experiment is described as follows: Cytotoxicity against human Bel7402 cells assessed as cell viability after 72 hrs by MTT assay. The note with it: Bel-7402, 72 h.

Structures are written as SMILES. pIC50: −log10 of the molar value.

In general, pIC50 refers to the IC50 on a negative log10 scale, so that one unit is a factor of ten.

In the case of `CCc1ccc(/C=C/C(=O)NC[C@H]2C3=C(C[C@H]4[C@H]5C6=C(C[C@@H]([C@H](C#N)N24)N5C)C(=O)C(C)=C(OC)C6=O)C(=O)C(C)=C(OC)C3=O)cc1`, the pIC50 in the experiment with A2780 was 7.59; with KETR3 it was 7.28; in experiment [1], 7.67; with A549 it was 7.01; in [2], less than 7.00; in the experiment on MCF7 it was 7.73. For the same compound, the pIC50 was 8.06 in the experiment on HeLa, less than 7.00 in the experiment with HCT-8, 7.55 in the experiment with KB and 7.61 in the experiment with Bel-7402.

`COC1=C(C)C(=O)C2=C(C1=O)[C@@H]1[C@@H]3CC4=C(C(=O)C(OC)=C(C)C4=O)[C@H](CNC(=O)c4ccco4)N3[C@@H](C#N)[C@H](C2)N1C`: the pIC50 in the experiment with A2780 is 8.41; in the experiment on KETR3, 8.52; in experiment [1] it was 7.79; in the experiment with A549, 9.02; in experiment [2] it was 8.77; in the experiment with MCF7 it was 7.82. The pIC50 in the experiment on HeLa was 8.59; in the experiment with HCT-8, 7.91; in the experiment on KB it was 8.45; with Bel-7402, 8.91.

Turning to `COC1=C(C)C(=O)C2=C(C1=O)[C@@H]1[C@@H]3CC4=C(C(=O)C(OC)=C(C)C4=O)[C@H](CNC(=O)/C=C/c4ccnc5ccccc45)N3[C@@H](C#N)[C@H](C2)N1C`, the negative-log IC50 (pIC50) in the experiment on A2780 was 7.76; in the experiment with KETR3, 7.94; in [1], 7.77; with A549, 7.45; in experiment [2], 7.63; with MCF7, 8.65. The pIC50 with HeLa was 8.08; with HCT-8, 7.74; in the experiment with KB it was 8.24; with Bel-7402, 7.74.

For `COC1=C(C)C(=O)C2=C(C1=O)[C@@H]1[C@@H]3CC4=C(C(=O)C(OC)=C(C)C4=O)[C@H](CNC(=O)c4ccccn4)N3[C@@H](C#N)[C@H](C2)N1C`, the pIC50 was 7.92 in the experiment on A2780; 7.82 in the experiment with KETR3; 7.49 in [1]; 7.52 in the experiment with A549; 8.18 in [2]; 7.81 with MCF7. The pIC50 in the experiment on HeLa was 8.14; in the experiment with HCT-8, 7.66; in the experiment on KB, 8.04; with Bel-7402 it was 8.42.

Take `COC1=C(C)C(=O)C2=C(C1=O)[C@@H]1[C@@H]3CC4=C(C(=O)C(OC)=C(C)C4=O)[C@H](CNC(=O)c4ccc5ccccc5n4)N3[C@@H](C#N)[C@H](C2)N1C`: the negative-log IC50 (pIC50) with A2780 was 7.53; in the experiment with KETR3, 7.16; in experiment [1], 7.67; with A549, 7.19; in [2], 7.70; with MCF7, 7.83. Besides, the negative-log IC50 (pIC50) was 8.02 with HeLa, 7.36 in the experiment with HCT-8, 7.78 with KB and 7.62 in the experiment with Bel-7402.

`COC1=C(C)C(=O)C2=C(C1=O)[C@@H]1[C@@H]3CC4=C(C(=O)C(OC)=C(C)C4=O)[C@H](CNC(=O)c4cccc(C(F)(F)F)c4)N3[C@@H](C#N)[C@H](C2)N1C`: the negative logarithm of the IC50 (pIC50) was 7.33 with A2780; 7.51 in the experiment on KETR3; 7.23 in experiment [1]; less than 7.00 in the experiment with A549; 7.59 in experiment [2]; 7.58 in the experiment on MCF7. In addition, the pIC50 is 7.36 with HeLa, less than 7.00 with HCT-8, 7.27 in the experiment with KB and 7.68 in the experiment on Bel-7402.

Regarding `COC1=C(C)C(=O)C2=C(C1=O)[C@@H]1[C@@H]3CC4=C(C(=O)C(OC)=C(C)C4=O)[C@H](CNC(=O)/C=C/c4ccc(OC)c(OC)c4OC)N3[C@@H](C#N)[C@H](C2)N1C`, the pIC50 in the experiment on A2780 is 7.47; in the experiment on KETR3, 7.81; in [1] it was 8.20; in the experiment with A549, 7.09; in [2], less than 7.00; in the experiment on MCF7, 8.26. Moreover, the pIC50 in the experiment on HeLa is 8.41; in the experiment with HCT-8, 7.56; with KB it was 8.01; in the experiment on Bel-7402, 7.94.

Regarding `COC1=C(C)C(=O)C2=C(C1=O)[C@@H]1[C@@H]3CC4=C(C(=O)C(OC)=C(C)C4=O)[C@H](CNC(=O)CNC(=O)c4ccccc4)N3[C@@H](C#N)[C@H](C2)N1C`, the pIC50 was 7.36 with A2780; 7.63 in the experiment with KETR3; 7.56 in experiment [1]; 8.00 in the experiment on A549; 7.78 in experiment [2]; 7.40 in the experiment with MCF7. The pIC50 was 7.97 in the experiment on HeLa, 7.23 in the experiment with HCT-8, 7.77 with KB and 7.65 with Bel-7402.

With `COC1=C(C)C(=O)C2=C(C1=O)[C@@H]1[C@@H]3CC4=C(C(=O)C(OC)=C(C)C4=O)[C@H](CNC(=O)c4cc5ccccc5[nH]4)N3[C@@H](C#N)[C@H](C2)N1C`, the pIC50 was 7.95 in the experiment on A2780; 7.71 with KETR3; 7.58 in experiment [1]; 7.46 with A549; 7.76 in [2]; 7.64 in the experiment with MCF7. Besides, the pIC50 is 8.28 in the experiment on HeLa, 7.04 with HCT-8, 7.83 with KB and 7.94 in the experiment on Bel-7402.

In the case of `COC1=C(C)C(=O)C2=C(C1=O)[C@@H]1[C@@H]3CC4=C(C(=O)C(OC)=C(C)C4=O)[C@H](CNC(=O)/C=C/c4cccc(C(F)(F)F)c4)N3[C@@H](C#N)[C@H](C2)N1C`, the pIC50 in the experiment on A2780 was 7.40; in the experiment on KETR3, 7.54; in experiment [1], 7.65; in the experiment with A549, 7.11; in experiment [2] it was less than 7.00; in the experiment with MCF7 it was 8.38. The pIC50 with HeLa was 8.10; with HCT-8, 7.36; with KB, 7.93; with Bel-7402, 7.53.

Take `COC1=C(C)C(=O)C2=C(C1=O)[C@@H]1[C@@H]3CC4=C(C(=O)C(OC)=C(C)C4=O)[C@H](CNC(=O)c4cccs4)N3[C@@H](C#N)[C@H](C2)N1C`: the pIC50 in the experiment on A2780 is 7.56; with KETR3, 7.43; in experiment [1] it was 8.38; in the experiment with A549, less than 7.00; in experiment [2], 7.57; in the experiment with MCF7, 7.34. In addition, the pIC50 in the experiment with HeLa was 7.76; with HCT-8 it was less than 7.00; in the experiment on KB, 7.76; in the experiment with Bel-7402, 7.78.

As to `COC1=C(C)C(=O)C2=C(C1=O)[C@@H]1[C@@H]3CC4=C(C(=O)C(OC)=C(C)C4=O)[C@H](CNC(=O)c4ccc5c(c4)OCO5)N3[C@@H](C#N)[C@H](C2)N1C`, the pIC50 in the experiment with A2780 is 8.29; with KETR3, 8.16; in [1], 7.70; in the experiment on A549, 7.16; in experiment [2], 8.66; in the experiment with MCF7, 8.32. Besides, the pIC50 in the experiment with HeLa was 8.48; with HCT-8 it was 7.68; in the experiment with KB it was 8.40; in the experiment with Bel-7402 it was 8.69.

Take `COC1=C(C)C(=O)C2=C(C1=O)[C@@H]1[C@@H]3CC4=C(C(=O)C(OC)=C(C)C4=O)[C@H](CNC(=O)/C=C/c4ccc(OC)cc4)N3[C@@H](C#N)[C@H](C2)N1C`: the pIC50 was 7.84 in the experiment with A2780; 7.96 in the experiment on KETR3; 8.16 in experiment [1]; 7.62 in the experiment with A549; 8.31 in [2]; 8.27 in the experiment on MCF7. The pIC50 in the experiment on HeLa was 8.11; in the experiment with HCT-8, 7.33; in the experiment on KB, 8.04; in the experiment on Bel-7402 it was 8.21.

As to `COC1=C(C)C(=O)C2=C(C1=O)[C@@H]1[C@@H]3CC4=C(C(=O)C(OC)=C(C)C4=O)[C@H](CNC(=O)C(C)=O)N3[C@@H](C#N)[C@H](C2)N1C` [SAFRAMYCIN A], the negative-log IC50 (pIC50) with A2780 is 8.56; in the experiment on KETR3, 8.02; in experiment [1], 7.96; in the experiment with A549 it was 7.39; in experiment [2] it was 8.60; in the experiment on MCF7 it was 8.19. Also, the pIC50 with HeLa is 8.97; with HCT-8, 8.60; in the experiment on KB, 8.65; with Bel-7402, 8.74.

On to `COC1=C(C)C(=O)C2=C(C1=O)[C@@H]1[C@@H]3CC4=C(C(=O)C(OC)=C(C)C4=O)[C@H](CNC(=O)OC(C)(C)C)N3[C@@H](C#N)[C@H](C2)N1C`, for which the pIC50 with A2780 is 7.64; in the experiment with KETR3 it was 7.89; in experiment [1], 7.18; with A549 it was 7.47; in [2] it was 7.73; in the experiment with MCF7, 8.05. Besides, the pIC50 in the experiment on HeLa is 8.13; with HCT-8, less than 7.00; with KB, 7.53; with Bel-7402, 8.27.

Consider `COC1=C(C)C(=O)C2=C(C1=O)[C@@H]1[C@@H]3CC4=C(C(=O)C(OC)=C(C)C4=O)[C@H](CNC(=O)c4cc(Br)ccc4Cl)N3[C@@H](C#N)[C@H](C2)N1C`, for which the pIC50 was 7.18 in [1], less than 7.00 in the experiment with HeLa and less than 7.00 in the experiment on HCT-8.

In the case of `COC1=C(C)C(=O)C2=C(C1=O)[C@@H]1[C@@H]3CC4=C(C(=O)C(OC)=C(C)C4=O)[C@H](CNC(=O)/C=C/c4ccc(C(C)(C)C)cc4)N3[C@@H](C#N)[C@H](C2)N1C`, the pIC50 was less than 7.00 with KETR3; 7.51 in [1]; less than 7.00 in the experiment with A549; less than 7.00 in experiment [2]; 7.59 in the experiment with MCF7; 7.51 in the experiment on HeLa. Further, the figures for the negative-log IC50 (pIC50) with HCT-8, in the experiment on KB and in the experiment with Bel-7402 were less than 7.00, 7.58 and less than 7.00, respectively.

These data come from ChEMBL document CHEMBL1944637, “Asymmetric synthesis and cytotoxicity of (-)-saframycin A analogues” (Eur J Med Chem, 2012).
